One substance from patent US8435538B2, “Anti-atheroma vaccine” (Thrombosis Research Institute, priority 2008, dated 2013) can be followed below.

Values joined by “and” are separate entries in the source; they are usually repeats but may differ in a detail not shown here. Equal entries are not always repeated. Ends that are not written are not given here.

In one assay the test system is hHSP60 peptide. Briefly: Peptide-specific antibody response in sera by ELISA after immunization with KLH conjugates, antigen hHSP60 peptide. In kind it is in vivo, mice. From the text: (§1) Apob^tm2SgyLdlr^tm1Her/J mice were immunized with combinations of ApoB and hHSP epitopes conjugated to keyhole limpet hemocyanin (KLH) as a carrier protein. The peptides were given either in combination, as a bi-specific immunogen, or in a single form, together with complete/incomplete Freund's adjuvant. Mice were fed with high-fat diet for 7 weeks then sacrificed. Peptide-specific antibody responses were detected in the sera by ELISA.
(An ELISA detects its analyte on a solid surface through an enzyme-linked reagent.)

Assay [1] has as its system Apob^tm2SgyLdlr^tm1Her/J mice. Briefly: Histological analysis of atherosclerotic lesions in the aortic sinus of immunized mice. The assay is classed as in vivo.
Source text: LDL receptor-deficient mice expressing ApoB-100 were immunized with a combination of two peptides derived from ApoB1 ([…], SEQ ID NO:25) and hHSP60 (AELKKQSKPVT, SEQ ID NO:26).
as §1
The lesions were 14.66% smaller following immunization with ApoB1 peptide alone (FIG. 5B), and 21.15% smaller after immunization with hHSP60 peptide alone (FIG. 5C) than in control mice.

Assay [2] deals with Apob^tm2Sgy Ldlr^tm1Her/J KO-mice. Briefly: RIMMS immunization, serum IgG titre by ELISA, KO-mouse model. In kind it is in vivo. To be noted: titre = highest serum dilution giving OD (450 nm) ≧1. The protocol:
The ability of the recombinant immunogens to generate an immune response in BALB/C mice models, C57/BL6 mice models and Apob^tm2Sgy Ldlr^tm1Her/J KO-mice models. Mice were immunized using a repetitive, multiple site immunization strategy (RIMMS). Groups of 10 of 6-8-week-old BALB/c mice were inoculated with 4 μg of recombinant immunogen mixed with Freund's adjuvant 5 times respectively. The immunization was carried out subcutaneously into 8 sites on days 0, 2, 5, 7 and 9. On day 12 and 21 blood sample will be collected to test the antibody response. […]
Serum samples of immunized and naïve mice were tested for IgG antibodies using OD values at a dilution of 1:100 (or 200) on ELISA plates coated with antigens. Cut-off value for positivity was calculated as mean OD of naïve mouse sera+3×SD. Serum samples showing higher OD on antigen than on control antigen are considered positive, the other is determined by the highest dilution of serum giving an OD reading (at 450 nm)≧1. In this regard, titre can be assessed as non-immunoreactivity (<200), low immunoreactivity (200≦titre<800), good immunoreactivity (800≦titre<3200) and very good immunoreactivity ((titre 3200)

Assay [3] deals with macrophages (CD68+ cells). Briefly: Infiltration of macrophages into atherosclerotic lesions, anti-CD68 staining. The assay is classed as in vivo. The note with it: compared with mice immunized with either HSP60 or apoB1 alone; FIG. 6. From the text: Infiltration of macrophages into atherosclerotic lesions in the Apob^tm2SgyLdlr^tm1Her/J mice were quantified by staining with anti-CD68. Sections of the tissue sample (5 μm thick) were stained with hematoxylin-eosin (H.E.) and examined under a light microscope. Macrophage levels were compared in a sample obtained from mice immunized with adjuvant only (control), mice immunized with ApoB only, mice immunized with hHSP60 only and mice immunized with the bi-specific ApoB1+hHSP60 immunogen.

The next assay relates to ApoB1 peptide. Briefly: Peptide-specific antibody response in sera by ELISA after immunization with KLH conjugates, antigen ApoB1 peptide. In kind it is in vivo, mice.
Source text: as §1

For the substance “ApoB1 + hHSP60-KLH: combination of ApoB1 and hHSP60 peptides conjugated to KLH, bi-specific immunogen (chain 1 IEIGLEGKGFEPTLEALFGK; chain 2 AELKKQSKPVT; also: peptides conjugated to KLH; listed as Homo sapiens)”, the “OD at 1:100 serum dilution, ELISA antigen hHSP60 peptide, Mean” value with hHSP60 peptide (Week 8, group mean) turned out to be 1.366. Moreover, the “OD at 1:100 serum dilution, ELISA antigen hHSP60 peptide” value with hHSP60 peptide (Week 8, individual mouse) was 1.368 and 1.405 and 1.556 and 1.282 and 1.215 and 1.338 and 1.396. Also, the “protection from progression of atherosclerotic lesion” value in assay [1] (LDL receptor-deficient mice expressing ApoB-100) is on record as “synergistic protection”. Besides, the “atherosclerotic lesions in the aortic sinus smaller in size than in control mice” value in assay [1] (vs adjuvant control, high-fat diet for 7 weeks) came out at 41.34%. Also, the “Immune response on KO- mouse model” value in assay [2] is on record as “Very Good (very good immunoreactivity ((titre 3200))”. In addition, the “number of macrophages (CD68+ cells) found within lesions of atherosclerosis” value in assay [3] is listed as “fewer”. In the assay with ApoB1 peptide (Week 8, group mean), the “OD at 1:100 serum dilution, ELISA antigen ApoB1 peptide, Mean” value was determined as 1.333. Besides, the “OD at 1:100 serum dilution, ELISA antigen ApoB1 peptide” value with ApoB1 peptide (Week 8, individual mouse) is 1.227 and 1.546 and 1.449 and 1.437 and 1.142 and 1.229 and 1.303.
